Organism: Rattus norvegicus
Assay: Open TG-GATES - Regimen: Daily Repeat
Type: toxicity, organism-based, Sprague-Dawley
Set-up: regimen Daily Repeat, gender Male, age 6 weeks
Details: in vivo, iv, 1 mg/kg, route intravenous injection, dose level High; for APTT / Bas / Eos / Fbg / Hb / Ht / Lym / MCH / MCHC / MCV / Mono / Neu / PT / Plat / RBC / Ret / WBC: tissue Blood; for KIDNEY_L / KIDNEY_R / KIDNEY_TOTAL: tissue Kidney; for LIVER: tissue Liver; for A/G / ALP / ALT / AST / BUN / CRE / Ca / Cl / DBIL / GLC / IP / K / LDH / Na / PL / RALB / TBIL / TC / TG / TP / gamma-GTP: tissue Plasma

C[C@@H]1[C@H](O)[C@@H](C)/C=C/C=C/C=C/C=C/C=C/C=C/C=C/[C@H](O[C@@H]2O[C@H](C)[C@@H](O)[C@H](N)[C@@H]2O)C[C@@H]2O[C@](O)(C[C@@H](O)C[C@@H](O)[C@H](O)CC[C@@H](O)C[C@@H](O)CC(=O)O[C@H]1C)C[C@H](O)[C@H]2C(=O)O [AMPHOTERICIN B]
TERMINAL_BW (72 h, time 3 day): 235.4 g | APTT (72 h, time 3 day): 15.8 s | Bas (72 h, time 3 day): 0% | Eos (72 h, time 3 day): 0.8% | Fbg (72 h, time 3 day): 303.4 mg/dL | Hb (72 h, time 3 day): 13.7 g/dL | Ht (72 h, time 3 day): 39.2% | Lym (72 h, time 3 day): 80.8% | MCH (72 h, time 3 day): 21.3 pg | MCHC (72 h, time 3 day): 34.8% | MCV (72 h, time 3 day): 61.1 fL | Mono (72 h, time 3 day): 2.2% | Neu (72 h, time 3 day): 15.2% | PT (72 h, time 3 day): 12.3 s | Plat (72 h, time 3 day): 136.2 x10_4/uL | RBC (72 h, time 3 day): 643 x10_4/ul | Ret (72 h, time 3 day): 4.2% | WBC (72 h, time 3 day): 106.4 x10_2/uL | KIDNEY_L (72 h, time 3 day): 1 g | KIDNEY_R (72 h, time 3 day): 1 g | KIDNEY_TOTAL (72 h, time 3 day): 2 g | LIVER (72 h, time 3 day): 10.7 g | A/G (72 h, time 3 day): 0.8 | ALP (72 h, time 3 day): 1621.8 IU/L | ALT (72 h, time 3 day): 32 IU/L | AST (72 h, time 3 day): 61.2 IU/L | BUN (72 h, time 3 day): 22.6 mg/dL | CRE (72 h, time 3 day): 0.2 mg/dL | Ca (72 h, time 3 day): 10.9 mg/dL | Cl (72 h, time 3 day): 106.4 meq/L | DBIL (72 h, time 3 day): 0.018 mg/dL | GLC (72 h, time 3 day): 174.6 mg/dL | IP (72 h, time 3 day): 7.1 mg/dL | K (72 h, time 3 day): 4.1 meq/L | LDH (72 h, time 3 day): 51.8 IU/L | Na (72 h, time 3 day): 143 meq/L | PL (72 h, time 3 day): 147 mg/dL | RALB (72 h, time 3 day): 2.6 g/dL | TBIL (72 h, time 3 day): 0.05 mg/dL | TC (72 h, time 3 day): 85 mg/dL | TG (72 h, time 3 day): 94.8 mg/dL | TP (72 h, time 3 day): 5.9 g/dL | gamma-GTP (72 h, time 3 day): 1.8 IU/L | TERMINAL_BW ([…], time 7 day): 266.4 g | TERMINAL_BW ([…], time 14 day): 304.7 g | TERMINAL_BW ([…], time 28 day): 371.1 g | APTT ([…], time 7 day): 17.2 s | Bas ([…], time 7 day): 0% | Eos ([…], time 7 day): 1% | Fbg ([…], time 7 day): 287 mg/dL | Hb ([…], time 7 day): 13.6 g/dL | Ht ([…], time 7 day): 39% | Lym ([…], time 7 day): 78% | MCH ([…], time 7 day): 20.5 pg | MCHC ([…], time 7 day): 34.9% | MCV ([…], time 7 day): 58.6 fL | Mono ([…], time 7 day): 2.2% | Neu ([…], time 7 day): 18.6% | PT ([…], time 7 day): 11.9 s | Plat ([…], time 7 day): 141.2 x10_4/uL | RBC ([…], time 7 day): 665.8 x10_4/ul | Ret ([…], time 7 day): 4.7% | WBC ([…], time 7 day): 126.3 x10_2/uL | APTT ([…], time 14 day): 16.6 s | Bas ([…], time 14 day): 0.4% | Eos ([…], time 14 day): 0.8% | Fbg ([…], time 14 day): 281.6 mg/dL | Hb ([…], time 14 day): 14.4 g/dL | Ht ([…], time 14 day): 40.7% | Lym ([…], time 14 day): 82.8% | MCH ([…], time 14 day): 20.3 pg | MCHC ([…], time 14 day): 35.4% | MCV ([…], time 14 day): 57.2 fL | Mono ([…], time 14 day): 1.6% | Neu ([…], time 14 day): 14.2% | PT ([…], time 14 day): 12.5 s | Plat ([…], time 14 day): 122.8 x10_4/uL | RBC ([…], time 14 day): 711.2 x10_4/ul | Ret ([…], time 14 day): 4.1% | WBC ([…], time 14 day): 116.3 x10_2/uL | APTT ([…], time 28 day): 19.3 s | Bas ([…], time 28 day): 1% | Eos ([…], time 28 day): 1% | Fbg ([…], time 28 day): 322.5 mg/dL | Hb ([…], time 28 day): 15.1 g/dL | Ht ([…], time 28 day): 42.9% | Lym ([…], time 28 day): 80.8% | MCH ([…], time 28 day): 18.9 pg | MCHC ([…], time 28 day): 35.2% | MCV ([…], time 28 day): 53.8 fL | Mono ([…], time 28 day): 2.2% | Neu ([…], time 28 day): 14.5% | PT ([…], time 28 day): 12.9 s | Plat ([…], time 28 day): 127.8 x10_4/uL | RBC ([…], time 28 day): 798.8 x10_4/ul | Ret ([…], time 28 day): 2.8% | WBC ([…], time 28 day): 135.7 x10_2/uL | KIDNEY_L ([…], time 7 day): 1.2 g | KIDNEY_R ([…], time 7 day): 1.1 g | KIDNEY_TOTAL ([…], time 7 day): 2.3 g | KIDNEY_L ([…], time 14 day): 1.2 g | KIDNEY_R ([…], time 14 day): 1.2 g | KIDNEY_TOTAL ([…], time 14 day): 2.5 g | KIDNEY_L ([…], time 28 day): 1.4 g | KIDNEY_R ([…], time 28 day): 1.3 g | KIDNEY_TOTAL ([…], time 28 day): 2.7 g | LIVER ([…], time 7 day): 12.5 g | LIVER ([…], time 14 day): 12.9 g | LIVER ([…], time 28 day): 14.4 g | A/G ([…], time 7 day): 0.8 | ALP ([…], time 7 day): 1417.8 IU/L | ALT ([…], time 7 day): 29.8 IU/L | AST ([…], time 7 day): 57.2 IU/L | BUN ([…], time 7 day): 22.4 mg/dL | CRE ([…], time 7 day): 0.2 mg/dL | Ca ([…], time 7 day): 11.2 mg/dL | Cl ([…], time 7 day): 105.2 meq/L | DBIL ([…], time 7 day): 0.018 mg/dL | GLC ([…], time 7 day): 177.8 mg/dL | IP ([…], time 7 day): 6.7 mg/dL | K ([…], time 7 day): 4.4 meq/L | LDH ([…], time 7 day): 57.4 IU/L | Na ([…], time 7 day): 143.2 meq/L | PL ([…], time 7 day): 145.6 mg/dL | RALB ([…], time 7 day): 2.6 g/dL | TBIL ([…], time 7 day): 0.044 mg/dL | TC ([…], time 7 day): 77 mg/dL | TG ([…], time 7 day): 138.6 mg/dL | TP ([…], time 7 day): 6 g/dL | gamma-GTP ([…], time 7 day): 1.2 IU/L | A/G ([…], time 14 day): 0.8 | ALP ([…], time 14 day): 1437.6 IU/L | ALT ([…], time 14 day): 31.6 IU/L | AST ([…], time 14 day): 63 IU/L | BUN ([…], time 14 day): 27.2 mg/dL | CRE ([…], time 14 day): 0.2 mg/dL | Ca ([…], time 14 day): 10.8 mg/dL | Cl ([…], time 14 day): 105 meq/L | DBIL ([…], time 14 day): 0.016 mg/dL | GLC ([…], time 14 day): 183.2 mg/dL | IP ([…], time 14 day): 6.7 mg/dL | K ([…], time 14 day): 4.6 meq/L | LDH ([…], time 14 day): 54 IU/L | Na ([…], time 14 day): 142.8 meq/L | PL ([…], time 14 day): 149.8 mg/dL | RALB ([…], time 14 day): 2.6 g/dL | TBIL ([…], time 14 day): 0.048 mg/dL | TC ([…], time 14 day): 75.6 mg/dL | TG ([…], time 14 day): 132.8 mg/dL | TP ([…], time 14 day): 6 g/dL | gamma-GTP ([…], time 14 day): 1 IU/L | A/G ([…], time 28 day): 0.6 | ALP ([…], time 28 day): 1068.2 IU/L | ALT ([…], time 28 day): 30.2 IU/L | AST ([…], time 28 day): 60.2 IU/L | BUN ([…], time 28 day): 26.8 mg/dL | CRE ([…], time 28 day): 0.2 mg/dL | Ca ([…], time 28 day): 10.9 mg/dL | Cl ([…], time 28 day): 106 meq/L | DBIL ([…], time 28 day): 0.0175 mg/dL | GLC ([…], time 28 day): 178 mg/dL | IP ([…], time 28 day): 6.1 mg/dL | K ([…], time 28 day): 4 meq/L | LDH ([…], time 28 day): 52.8 IU/L | Na ([…], time 28 day): 145.2 meq/L | PL ([…], time 28 day): 128.8 mg/dL | RALB ([…], time 28 day): 2.6 g/dL | TBIL ([…], time 28 day): 0.06 mg/dL | TC ([…], time 28 day): 63.2 mg/dL | TG ([…], time 28 day): 105 mg/dL | TP ([…], time 28 day): 6.4 g/dL | gamma-GTP ([…], time 28 day): 1.2 IU/L

Source: ChEMBL document CHEMBL3885861, “Open TG-GATES”
